The text below walks through data of US20250296938A1, “Compounds that Interact with the Ras Superfamily for the Treatment of Cancers, Inflammatory Diseases, Rasopathies, and Fibrotic Disease” (SHY Therapeutics, LLC, priority 2018, published 2025).

Each structure is given as a SMILES string.

The first assay has as its target T1, KRas G12D mutant (Homo sapiens, UniProt P01116, G12D).
T1 construct: fused on or other part: His tag, used for capture on nickel-coated plates
Briefly: Ras GTP binding domain inhibition assay (Cy3-GTP/Cy5-GTP competition). Particulars: at 20 μM, with SOS; read-out: KRas G12D mutant + SOS: % inh. An outline of the steps: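 Ni-plate immobilised His-Ras, overnight 4 °C; cpd 20 μM (or dilution series for IC50), 1% DMSO, 3 h RT; optional His-Sos […] last hour; Cy3- or Cy5-GTP 100 nM, 45 min RT; 3× wash; bound fluorescence read.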
Regarding `COc1cccc(-c2sc3nc(-c4nccn4C)nc(N4CCC(OC)C4)c3c2-c2ccccc2)c1F.Cl` (stereo not drawn) [drawing 973], the inhibition at 20 µM was in the range of 51 to 75%.
The same measure, in the same setting: for `COc1ccc(Cn2cnc(-c3nc(O)c4scc(-c5ccccn5)c4n3)c2)cc1` [drawing 974] the value was 0%; for `COc1nscc1-c1sc2nc(-c3nccn3C)nc(N3CCC(OC)C3)c2c1-c1ccccc1` (stereo not drawn) [drawing 975], 51 to 75%.
On the same count and under the same terms, under `COCCn1cc(-c2sc3nc(-c4nccn4C)nc(N4CCC(OC)C4)c3c2-c2ccccc2)cn1` (stereo not drawn) [drawing 976] stands 51 to 75%; under `COC1CCN(c2nc(-c3nccn3C)nc3sc(-c4cnc(C5CC5)o4)c(-c4ccccc4)c23)C1` (stereo not drawn) [drawing 977], 51 to 75%; under `COc1ncccc1-c1sc2nc(-c3nccn3C)nc(N3CCC(OC)C3)c2c1-c1ccccc1` (stereo not drawn) [drawing 978], 51 to 75%.
The same measure, in the same setting: for `COC1CCN(c2nc(-c3nccn3C)nc3sc(-c4cccnc4)c(-c4ccccc4)c23)C1` (stereo not drawn) [drawing 979] the value was 51 to 75%; for `COc1cc(-c2sc3nc(-c4nccn4C)nc(N4CCC(OC)C4)c3c2-c2ccccc2)ccn1` (stereo not drawn) [drawing 980], 51 to 75%.
Regarding `Cc1cc(Cn2ccnc2-c2nc(O)c3scc(-c4ccccn4)c3n2)on1` [drawing 981], the inhibition at 20 µM fell in the range of 26 to 50%.
With `Oc1nc(-c2cn(-c3ccccc3)cn2)nc2c(-c3ccccn3)csc12` [drawing 982], the inhibition at 20 µM was in the range of 1 to 25%.
The same measure, in the same setting: for `Oc1nc(-c2cn3cccnc3n2)nc2c(-c3ccccn3)csc12` [drawing 983] the value was 1 to 25%; for `COC1CCN(c2nc(-c3nccn3C)nc3sc(-c4ccccc4Cl)c(-c4cscn4)c23)C1` (stereo not drawn) [drawing 984], 51 to 75%.

Staying with this assay, now noted: at 20 μM, without SOS.
On to `COc1cccc(-c2sc3nc(-c4nccn4C)nc(N4CCC(OC)C4)c3c2-c2ccccc2)c1F.Cl` (stereo not drawn) [drawing 973], for which the “KRas G12D mutant: % inh.” value is “C (51-75% inhibition)”.

Staying with this assay, now noted: at 20 μM, without SOS; read-out: KRas G12D mutant: % inh.
As to `COc1ccc(Cn2cnc(-c3nc(O)c4scc(-c5ccccn5)c4n3)c2)cc1` [drawing 974], the inhibition at 20 µM lay in the range of 1 to 25%.
Still for that read-out and setting: for `COc1nscc1-c1sc2nc(-c3nccn3C)nc(N3CCC(OC)C3)c2c1-c1ccccc1` (stereo not drawn) [drawing 975] the value was 26 to 50%; for `COCCn1cc(-c2sc3nc(-c4nccn4C)nc(N4CCC(OC)C4)c3c2-c2ccccc2)cn1` (stereo not drawn) [drawing 976], 51 to 75%; for `COC1CCN(c2nc(-c3nccn3C)nc3sc(-c4cnc(C5CC5)o4)c(-c4ccccc4)c23)C1` (stereo not drawn) [drawing 977], 51 to 75%.
Still for that read-out and setting: under `COc1ncccc1-c1sc2nc(-c3nccn3C)nc(N3CCC(OC)C3)c2c1-c1ccccc1` (stereo not drawn) [drawing 978] stands 51 to 75%; under `COC1CCN(c2nc(-c3nccn3C)nc3sc(-c4cccnc4)c(-c4ccccc4)c23)C1` (stereo not drawn) [drawing 979], 51 to 75%.
For `COc1cc(-c2sc3nc(-c4nccn4C)nc(N4CCC(OC)C4)c3c2-c2ccccc2)ccn1` (stereo not drawn) [drawing 980], the inhibition at 20 µM lay within 51 to 75%.
Still for that read-out and setting: under `Cc1cc(Cn2ccnc2-c2nc(O)c3scc(-c4ccccn4)c3n2)on1` [drawing 981] stands 51 to 75%; under `Oc1nc(-c2cn(-c3ccccc3)cn2)nc2c(-c3ccccn3)csc12` [drawing 982], 1 to 25%; under `Oc1nc(-c2cn3cccnc3n2)nc2c(-c3ccccn3)csc12` [drawing 983], 1 to 25%.
Regarding `COC1CCN(c2nc(-c3nccn3C)nc3sc(-c4ccccc4Cl)c(-c4cscn4)c23)C1` (stereo not drawn) [drawing 984], the inhibition at 20 µM lay in the range of 51 to 75%.

Another assay has as its target Rac-1 (Homo sapiens, UniProt P63000). The assay is described as above. Particulars: at 20 μM, with SOS. An outline of the steps:
(§1)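 First, His-tagged protein is coated on nickel wells overnight at 4 °C. Next, compound (20 μM single point or serial dilution) is added for 3 h at room temperature, with or without Sos exchange factor in the last hour. Finally, 100 nM labelled GTP binds for 45 min and retained signal is measured.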
`COc1cccc(-c2sc3nc(-c4nccn4C)nc(N4CCC(OC)C4)c3c2-c2ccccc2)c1F.Cl` (stereo not drawn) [drawing 973]: the “Rac-1 + SOS: % inh.” value is given as 0 (0% inhibition).

The assay is the same for the next values; noted with them: at 20 μM, without SOS.
With `COc1cccc(-c2sc3nc(-c4nccn4C)nc(N4CCC(OC)C4)c3c2-c2ccccc2)c1F.Cl` (stereo not drawn) [drawing 973], the “Rac-1: % inh.” value was “A (1-25% inhibition)”.

Staying with this assay, now noted: with SOS, read-out: Rac-1 + SOS: % inh.
Take `COc1ccc(Cn2cnc(-c3nc(O)c4scc(-c5ccccn5)c4n3)c2)cc1` [drawing 974]: the inhibition at 20 µM lay within 1 to 25%.
On to `COc1nscc1-c1sc2nc(-c3nccn3C)nc(N3CCC(OC)C3)c2c1-c1ccccc1` (stereo not drawn) [drawing 975], for which the inhibition at 20 µM fell in the range of 26 to 50%.
Same read-out and setting: under `COCCn1cc(-c2sc3nc(-c4nccn4C)nc(N4CCC(OC)C4)c3c2-c2ccccc2)cn1` (stereo not drawn) [drawing 976] stands 51 to 75%; under `COC1CCN(c2nc(-c3nccn3C)nc3sc(-c4cnc(C5CC5)o4)c(-c4ccccc4)c23)C1` (stereo not drawn) [drawing 977], 1 to 25%; under `COc1ncccc1-c1sc2nc(-c3nccn3C)nc(N3CCC(OC)C3)c2c1-c1ccccc1` (stereo not drawn) [drawing 978], 51 to 75%.
Still for that read-out and setting: for `COC1CCN(c2nc(-c3nccn3C)nc3sc(-c4cccnc4)c(-c4ccccc4)c23)C1` (stereo not drawn) [drawing 979] the value was 51 to 75%.
In the case of `COc1cc(-c2sc3nc(-c4nccn4C)nc(N4CCC(OC)C4)c3c2-c2ccccc2)ccn1` (stereo not drawn) [drawing 980], the inhibition at 20 µM was in the range of 1 to 25%.
The same measure, in the same setting: under `Cc1cc(Cn2ccnc2-c2nc(O)c3scc(-c4ccccn4)c3n2)on1` [drawing 981] stands 51 to 75%.
Same read-out and setting: for `Oc1nc(-c2cn(-c3ccccc3)cn2)nc2c(-c3ccccn3)csc12` [drawing 982] the value was 1 to 25%; for `Oc1nc(-c2cn3cccnc3n2)nc2c(-c3ccccn3)csc12` [drawing 983], 0%.
The same measure, in the same setting: for `COC1CCN(c2nc(-c3nccn3C)nc3sc(-c4ccccc4Cl)c(-c4cscn4)c23)C1` (stereo not drawn) [drawing 984] the value was 76 to 100%.

The assay is the same for the next values; noted with them: without SOS, read-out: Rac-1: % inh.
`COc1ccc(Cn2cnc(-c3nc(O)c4scc(-c5ccccn5)c4n3)c2)cc1` [drawing 974]: the inhibition at 20 µM lay within 1 to 25%.
For `COc1nscc1-c1sc2nc(-c3nccn3C)nc(N3CCC(OC)C3)c2c1-c1ccccc1` (stereo not drawn) [drawing 975], the inhibition at 20 µM is 26 to 50%.
Still for that read-out and setting: under `COCCn1cc(-c2sc3nc(-c4nccn4C)nc(N4CCC(OC)C4)c3c2-c2ccccc2)cn1` (stereo not drawn) [drawing 976] stands 51 to 75%; under `COC1CCN(c2nc(-c3nccn3C)nc3sc(-c4cnc(C5CC5)o4)c(-c4ccccc4)c23)C1` (stereo not drawn) [drawing 977], 1 to 25%; under `COc1ncccc1-c1sc2nc(-c3nccn3C)nc(N3CCC(OC)C3)c2c1-c1ccccc1` (stereo not drawn) [drawing 978], 26 to 50%.
On the same count and under the same terms, for `COC1CCN(c2nc(-c3nccn3C)nc3sc(-c4cccnc4)c(-c4ccccc4)c23)C1` (stereo not drawn) [drawing 979] the value was 76 to 100%.
The same measure, in the same setting: under `COc1cc(-c2sc3nc(-c4nccn4C)nc(N4CCC(OC)C4)c3c2-c2ccccc2)ccn1` (stereo not drawn) [drawing 980] stands 26 to 50%.
Regarding `Cc1cc(Cn2ccnc2-c2nc(O)c3scc(-c4ccccn4)c3n2)on1` [drawing 981], the inhibition at 20 µM fell in the range of 51 to 75%.
Still for that read-out and setting: under `Oc1nc(-c2cn(-c3ccccc3)cn2)nc2c(-c3ccccn3)csc12` [drawing 982] stands 26 to 50%; under `Oc1nc(-c2cn3cccnc3n2)nc2c(-c3ccccn3)csc12` [drawing 983], 0%.
With `COC1CCN(c2nc(-c3nccn3C)nc3sc(-c4ccccc4Cl)c(-c4cscn4)c23)C1` (stereo not drawn) [drawing 984], the inhibition at 20 µM lay within 51 to 75%.

A further assay concerns the target Rho-A (Homo sapiens, UniProt P61586). Described as above. Particulars: at 20 μM, with SOS. An outline of the steps: as §1
Consider `COc1cccc(-c2sc3nc(-c4nccn4C)nc(N4CCC(OC)C4)c3c2-c2ccccc2)c1F.Cl` (stereo not drawn) [drawing 973], for which the “Rho-A + SOS: % inh.” value is “C (51-75% inhibition)”.

Staying with this assay, now noted: at 20 μM, without SOS.
As to `COc1cccc(-c2sc3nc(-c4nccn4C)nc(N4CCC(OC)C4)c3c2-c2ccccc2)c1F.Cl` (stereo not drawn) [drawing 973], the “Rho-A: % inh.” value is recorded as “A (1-25% inhibition)”.

Still in this assay, the particulars now being: with SOS, read-out: Rho-A + SOS: % inh.
`COc1ccc(Cn2cnc(-c3nc(O)c4scc(-c5ccccn5)c4n3)c2)cc1` [drawing 974]: the inhibition at 20 µM was determined as 0%.
Still for that read-out and setting: for `COc1nscc1-c1sc2nc(-c3nccn3C)nc(N3CCC(OC)C3)c2c1-c1ccccc1` (stereo not drawn) [drawing 975] the value was 1 to 25%; for `COCCn1cc(-c2sc3nc(-c4nccn4C)nc(N4CCC(OC)C4)c3c2-c2ccccc2)cn1` (stereo not drawn) [drawing 976], 26 to 50%; for `COC1CCN(c2nc(-c3nccn3C)nc3sc(-c4cnc(C5CC5)o4)c(-c4ccccc4)c23)C1` (stereo not drawn) [drawing 977], 51 to 75%.
In the case of `COc1ncccc1-c1sc2nc(-c3nccn3C)nc(N3CCC(OC)C3)c2c1-c1ccccc1` (stereo not drawn) [drawing 978], the inhibition at 20 µM was 51 to 75%.
On the same count and under the same terms, for `COC1CCN(c2nc(-c3nccn3C)nc3sc(-c4cccnc4)c(-c4ccccc4)c23)C1` (stereo not drawn) [drawing 979] the value was 51 to 75%.
On the same count and under the same terms, under `COc1cc(-c2sc3nc(-c4nccn4C)nc(N4CCC(OC)C4)c3c2-c2ccccc2)ccn1` (stereo not drawn) [drawing 980] stands 26 to 50%; under `Cc1cc(Cn2ccnc2-c2nc(O)c3scc(-c4ccccn4)c3n2)on1` [drawing 981], 26 to 50%.
Still for that read-out and setting: for `Oc1nc(-c2cn(-c3ccccc3)cn2)nc2c(-c3ccccn3)csc12` [drawing 982] the value was 26 to 50%.
Regarding `Oc1nc(-c2cn3cccnc3n2)nc2c(-c3ccccn3)csc12` [drawing 983], the inhibition at 20 µM fell in the range of 1 to 25%.
On the same count and under the same terms, for `COC1CCN(c2nc(-c3nccn3C)nc3sc(-c4ccccc4Cl)c(-c4cscn4)c23)C1` (stereo not drawn) [drawing 984] the value was 51 to 75%.

Staying with this assay, now noted: without SOS, read-out: Rho-A: % inh.
With `COc1ccc(Cn2cnc(-c3nc(O)c4scc(-c5ccccn5)c4n3)c2)cc1` [drawing 974], the inhibition at 20 µM amounted to 0%.
Consider `COc1nscc1-c1sc2nc(-c3nccn3C)nc(N3CCC(OC)C3)c2c1-c1ccccc1` (stereo not drawn) [drawing 975], for which the inhibition at 20 µM fell in the range of 1 to 25%.
On to `COCCn1cc(-c2sc3nc(-c4nccn4C)nc(N4CCC(OC)C4)c3c2-c2ccccc2)cn1` (stereo not drawn) [drawing 976], for which the inhibition at 20 µM fell in the range of 26 to 50%.
As for `COC1CCN(c2nc(-c3nccn3C)nc3sc(-c4cnc(C5CC5)o4)c(-c4ccccc4)c23)C1` (stereo not drawn) [drawing 977], the inhibition at 20 µM was 26 to 50%.
Regarding `COc1ncccc1-c1sc2nc(-c3nccn3C)nc(N3CCC(OC)C3)c2c1-c1ccccc1` (stereo not drawn) [drawing 978], the inhibition at 20 µM lay in the range of 51 to 75%.
With `COC1CCN(c2nc(-c3nccn3C)nc3sc(-c4cccnc4)c(-c4ccccc4)c23)C1` (stereo not drawn) [drawing 979], the inhibition at 20 µM was 51 to 75%.
As to `COc1cc(-c2sc3nc(-c4nccn4C)nc(N4CCC(OC)C4)c3c2-c2ccccc2)ccn1` (stereo not drawn) [drawing 980], the inhibition at 20 µM was in the range of 1 to 25%.
Same read-out and setting: under `Cc1cc(Cn2ccnc2-c2nc(O)c3scc(-c4ccccn4)c3n2)on1` [drawing 981] stands 1 to 25%; under `Oc1nc(-c2cn(-c3ccccc3)cn2)nc2c(-c3ccccn3)csc12` [drawing 982], 0%.
Turning to `Oc1nc(-c2cn3cccnc3n2)nc2c(-c3ccccn3)csc12` [drawing 983], the inhibition at 20 µM lay within 26 to 50%.
Still for that read-out and setting: under `COC1CCN(c2nc(-c3nccn3C)nc3sc(-c4ccccc4Cl)c(-c4cscn4)c23)C1` (stereo not drawn) [drawing 984] stands 0%.
